The target in the experiment is CFTR (Homo sapiens, UniProt P13569). Briefly: Membrane potential dye assay (FLIPR Tetra) of CFTR-mediated chloride transport in enteroid cells. As to conditions: human intestinal epithelial enteroid cells, 18-24 h incubation with test compound, acute 10 μM forskolin and 300 nM Compound III; for EC50: CFTR-mediated chloride transport; for Max. Activity: chloride transport as % of triple combination positive control (% Activity). Format: cell-based. Here is the method:
Base medium (ADF+++) consisted of Advanced DMEM/Ham's F12, 2 mM Glutamax, 10 mM HEPES, 1 μg/ml penicillin/streptomycin.
Intestinal enteroid maintenance medium (IEMM) consisted of ADF+++, 1×B27 supplement, 1×N2 supplement, 1.25 mM N-acetyl cysteine, 10 mM Nicotinamide, 50 ng/mL hEGF, 10 nM Gastrin, 1 μg/mL hR-spondin-1, 100 ng/mL hNoggin, TGF-b type 1 inhibitor A-83-01, 100 μg/mL Primocin, 10 μM P38 MAPK inhibitor SB202190.
Bath 1 Buffer consisted of 1 mM MgCl2, 160 mM NaCl, 4.5 mM KCl, 10 mM HEPES, 10 mM Glucose, 2 mM CaCl2.
Chloride Free Buffer consisted of 1 mM Magnesium Gluconate, 2 mM Calcium Gluconate, 4.5 mM Potassium Gluconate, 160 mM Sodium Gluconate, 10 mM HEPES, 10 mM Glucose.
Bath1 Dye Solution consisted of Bath 1 Buffer, 0.04% Pluronic F127, 20 μM Methyl Oxonol, 30 μM CaCCinh-A01, 30 μM Chicago Sky Blue.
Chloride Free Dye Solution consisted of Chloride Free Buffer, 0.04% Pluronic F127, 20 μM Methyl Oxonol, 30 μM CaCCinh-A01, 30 μM Chicago Sky Blue.
Chloride Free Dye Stimulation Solution consisted of Chloride Free Dye Solution, 10 μM forskolin, 100 μM IBMX, and 300 nM Compound III.
Human intestinal epithelial enteroid cells were obtained from the Hubrecht Institute for Developmental Biology and Stem Cell Research, Utrecht, The Netherlands and expanded in T-Flasks as previously described (Dekkers J F, Wiegerinck C L, de Jonge H R, Bronsveld I, Janssens H M, de Winter-de Groot K M, Brandsma A M, de Jong N W M, Bijvelds M J C, Scholte B J, Nieuwenhuis E E S, van den Brink S, Clevers H, van der Ent C K, Middendorp S and M Beekman J M. A functional CFTR assay using primary cystic fibrosis intestinal organoids. Nat. Med. 2013 July; 19(7):939-45.
Enteroid Cell Harvesting and Seeding
Cells were recovered in cell recovery solution, collected by centrifugation at 650 rpm for 5 min at 4° C., resuspended in TryPLE and incubated for 5 min at 37° C. Cells were then collected by centrifugation at 650 rpm for 5 min at 4° C. and resuspended in IEMM containing 10 μM ROCK inhibitor (RI). The cell suspension was passed through a 40 μm cell strainer and resuspended at 1×10^6 cells/mL in IEMM containing 10 μM RI. Cells were seeded at 5000 cells/well into multi-well plates and incubated for overnight at 37° C., 95% humidity and 5% CO2 prior to assay.
Membrane Potential Dye Assay
Enteroid cells were incubated with test compound in IEMM for 18-24 h at 37° C., 95% humidity and 5% CO2. Following compound incubations, a membrane potential dye assay was employed using a FLIPR Tetra to directly measure the potency and efficacy of the test compound on CFTR-mediated chloride transport following acute addition of 10 μM forskolin and 300 nM N-[2,4-bis(1,1-dimethylethyl)-5-hydroxyphenyl]-1,4-dihydro-4-oxoquinoline-3-carboxamide. Briefly, cells were washed 5 times in Bath 1 Buffer. Bath 1 Dye Solution was added and the cells were incubated for 25 min at ambient temperature. Following dye incubation, cells were washed 3 times in Chloride Free Dye Solution. Chloride transport was initiated by addition of Chloride Free Dye Stimulation Solution and the fluorescence signal was read for 15 min. The CFTR-mediated chloride transport for each condition was determined from the AUC of the fluorescence response to acute forskolin and 300 nM N-[2,4-bis(1,1-dimethylethyl)-5-hydroxyphenyl]-1,4-dihydro-4-oxoquinoline-3-carboxamide stimulation. Chloride transport was then expressed as a percentage of the chloride transport following treatment with 1 μM (14S)-8-[3-(2-{Dispiro[2.0.2.1]heptan-7-yl}ethoxy)-1H-pyrazol-1-yl]-12,12-dimethyl-2λ^6-thia-3,9,11,18,23-pentaazatetracyclo[17.3.1.111,14.05,10]-tetracosa-1(22),5,7,9,19(23),20-hexaene-2,2,4-trione, 3 μM ((R)-1-(2,2-difluorobenzo[d][1,3]dioxol-5-yl)-N-(1-(2,3-dihydroxypropyl)-6-fluoro-2-(1-hydroxy-2-methylpropan-2-yl)-1H-indol-5-yl)cyclopropanecarboxamide and 300 nM acute N-[2,4-bis(1,1-dimethylethyl)-5-hydroxyphenyl]-1,4-dihydro-4-oxoquinoline-3-carboxamide triple combination positive control (% Activity). […]

For orientation: EC50 means the concentration at which the effect is half-maximal.

Sequence of CFTR (P13569 with tags, fused parts or gaps DEL508-508): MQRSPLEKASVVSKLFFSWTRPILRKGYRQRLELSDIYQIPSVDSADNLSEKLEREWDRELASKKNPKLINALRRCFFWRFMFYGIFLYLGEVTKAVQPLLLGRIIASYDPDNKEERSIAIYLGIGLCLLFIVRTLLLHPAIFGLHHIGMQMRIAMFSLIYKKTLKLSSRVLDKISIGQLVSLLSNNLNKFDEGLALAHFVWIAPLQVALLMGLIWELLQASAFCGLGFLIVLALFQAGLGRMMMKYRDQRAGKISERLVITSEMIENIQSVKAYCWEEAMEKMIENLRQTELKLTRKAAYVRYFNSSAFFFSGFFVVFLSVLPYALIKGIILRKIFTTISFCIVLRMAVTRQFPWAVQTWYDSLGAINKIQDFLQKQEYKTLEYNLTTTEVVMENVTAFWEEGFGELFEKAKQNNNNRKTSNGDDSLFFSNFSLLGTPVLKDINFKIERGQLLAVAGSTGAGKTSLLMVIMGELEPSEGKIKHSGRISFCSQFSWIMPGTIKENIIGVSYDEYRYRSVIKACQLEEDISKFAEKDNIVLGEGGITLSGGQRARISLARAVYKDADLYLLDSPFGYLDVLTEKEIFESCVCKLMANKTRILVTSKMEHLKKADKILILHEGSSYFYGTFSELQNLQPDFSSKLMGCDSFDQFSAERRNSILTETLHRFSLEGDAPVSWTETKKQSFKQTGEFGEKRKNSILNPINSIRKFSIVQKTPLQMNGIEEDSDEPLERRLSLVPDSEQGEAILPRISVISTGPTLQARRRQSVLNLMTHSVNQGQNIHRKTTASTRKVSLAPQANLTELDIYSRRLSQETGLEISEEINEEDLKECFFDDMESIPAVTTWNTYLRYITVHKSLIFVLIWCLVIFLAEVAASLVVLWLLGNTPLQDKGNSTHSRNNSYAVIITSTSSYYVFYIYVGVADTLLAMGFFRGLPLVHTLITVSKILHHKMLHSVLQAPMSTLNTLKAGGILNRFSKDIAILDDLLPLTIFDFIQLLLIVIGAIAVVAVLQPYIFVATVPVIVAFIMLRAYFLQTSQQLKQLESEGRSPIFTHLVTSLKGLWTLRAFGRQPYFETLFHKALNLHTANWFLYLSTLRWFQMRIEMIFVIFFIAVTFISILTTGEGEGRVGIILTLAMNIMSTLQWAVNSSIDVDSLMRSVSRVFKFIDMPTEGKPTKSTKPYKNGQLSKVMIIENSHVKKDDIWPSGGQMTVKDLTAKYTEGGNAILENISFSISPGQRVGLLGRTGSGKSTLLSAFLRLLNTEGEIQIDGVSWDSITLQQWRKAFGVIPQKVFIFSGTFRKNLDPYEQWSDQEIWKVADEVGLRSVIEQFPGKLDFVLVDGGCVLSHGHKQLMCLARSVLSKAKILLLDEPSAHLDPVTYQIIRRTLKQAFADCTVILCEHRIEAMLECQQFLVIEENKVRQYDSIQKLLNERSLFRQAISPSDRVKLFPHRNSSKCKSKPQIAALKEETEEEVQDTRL

Regarding `Cc1cccc(C)c1-c1cc2nc(n1)NS(=O)(=O)c1cccc(c1)C(=O)N(C1CC3(CC3)C1)[C@H](CC(C)C)CO2` [Compound I, (11R)-6-(2,6-dimethylphenyl)-11-(2-methylpropyl)-12-{spiro[2.3]hexan-5-yl}-9-oxa-2λ^6-thia-3,5,12,19-tetraazatricyclo[12.3.1.14,8]nonadeca-1(17),4(19),5,7,14(18),15-hexaene-2,2,13-trione], the EC50 is under 1000 nM and the “Max. Activity” value is reported as “+++ (+++ is >60%)”.
Consider `[2H]C1([2H])C([2H])([2H])C12CC(N1C(=O)c3cccc(c3)S(=O)(=O)Nc3nc(cc(-c4c(C)cccc4C)n3)OC[C@H]1CC(C)C)C2` [Compound Ia, (11R)-6-(2,6-Dimethylphenyl)-11-(2-methylpropyl)-12-[(1,1,2,2-tetradeutero)spiro[2.3]hexan-5-yl]-9-oxa-2λ^6-thia-3,5,12,19-tetraazatricyclo[12.3.1.14,8]nonadeca-1(17),4(19),5,7,14(18),15-hexaene-2,2,13-trione], for which the EC50 is under 1000 nM and the “Max. Activity” value is “+++ (+++ is >60%)”.
For the molecule `[2H]C1([2H])C2(CC2)C([2H])([2H])C1([2H])N1C(=O)c2cccc(c2)S(=O)(=O)Nc2nc(cc(-c3c(C)cccc3C)n2)OC[C@H]1CC(C)C` [Compound Ib, (11R)-6-(2,6-Dimethylphenyl)-11-isobutyl-2,2-dioxo-12-(4,4,5,6,6-pentadeuteriospiro[2.3]hexan-5-yl)-9-oxa-2-thia-3,5,12,19-tetrazatricyclo[12.3.1.14,8]nonadeca-1(18),4,6,8(19),14,16-hexaen-13-one], the EC50 was under 1000 nM and the “Max. Activity” value was “+++ (+++ is >60%)”.
For `[2H]C1(N2C(=O)c3cccc(c3)S(=O)(=O)Nc3nc(cc(-c4c(C)cccc4C)n3)OC[C@H]2CC(C)C)CC2(CC2)C1` [Compound Ic, (11R)-12-(5-Deuteriospiro[2.3]hexan-5-yl)-6-(2,6-dimethylphenyl)-11-isobutyl-2,2-dioxo-9-oxa-2-thia-3,5,12,19-tetrazatricyclo[12.3.1.14,8]nonadeca-1(18),4,6,8(19),14,16-hexaen-13-one] the same measures were under 1000 nM and “+++ (+++ is >60%)”.
Turning to `[2H]C([2H])([2H])c1cccc(C([2H])([2H])[2H])c1-c1cc2nc(n1)NS(=O)(=O)c1cccc(c1)C(=O)N(C1CC3(CC3)C1)[C@H](CC(C)C)CO2` [Compound Id, (11R)-6-[2,6-di(trideutero)methylphenyl]-11-(2-methylpropyl)-12-{spiro[2.3]hexan-5-yl}-9-oxa-2λ^6-thia-3,5,12,19-tetraazatricyclo[12.3.1.14,8]nonadeca-1(17),4(19),5,7,14(18),15-hexaene-2,2,13-trione], the EC50 was under 1000 nM and the “Max. Activity” value is “+++ (+++ is >60%)”.

Source of the values: patent publication US12421251B2, “Cystic fibrosis transmembrane conductance regulator modulating agents” (VERTEX PHARMACEUTICALS INCORPORATED, priority 2019, dated 2025).
